Assay: Particle size D[90] of crystals before and after polymorph transformation
Format: physicochemical

| SMILES | particle size D[90] (Example 1, needle-shaped crystals formed in vessel B on adding PG solution to water/PG anti-solvent at 10 to 20° C., before recirculation) | particle size D[90] (Example 1, small granular crystals after about 24 hours of recirculation through inline homogenization apparatus) | particle size D[90] (Example 2, small granular crystals after about 30 hours of recirculation by pump through outlet and inlet of vessel B) | particle size D[90] (Example 3, N-1 seeded, overhead homogenizer in transient vessel at 55-65° C., continuous transfer, filtered and dried) |
| --- | --- | --- | --- | --- |
| COc1ccc(-n2nc(C(N)=O)c3c2C(=O)N(c2ccc(N4CCCCC4=O)cc2)CC3)cc1 [H2-2, 1-(4-methoxyphenyl)-7-oxo-6-(4-(2-oxopiperidin-1-yl)phenyl)-4,5,6,7-tetrahydro-1H-pyrazolo[3,4-c]pyridine-3-carboxamide] | greater than 160 μm | – | – | – |
| COc1ccc(-n2nc(C(N)=O)c3c2C(=O)N(c2ccc(N4CCCCC4=O)cc2)CC3)cc1 [N-1, 1-(4-methoxyphenyl)-7-oxo-6-(4-(2-oxopiperidin-1-yl)phenyl)-4,5,6,7-tetrahydro-1H-pyrazolo[3,4-c]pyridine-3-carboxamide] | – | less than 20 μm | less than 20 μm | less than 20 μm |

Reference: patent US20060160841A1, “Crystallization via high-shear transformation” (priority 2005, published 2006)
